Literature values as cited in EP1782809A1, “Use of ligands of PPARGamma for inducing foetal lung maturity and the prevention of the respiratory-distress syndrome in premature infants” (Charité-Universitätsmedizin Berlin, priority 2005, dated 2007).
Read-outs that look alike come from different tables or passages of the source.

How the values were obtained:
[1] = rabbits; 20 or 75-fold of the maximal recommended human dosage
[2] = not given; remark: listed apart in the source

| foetal growth ([2]; late pregnancy, at this dose (20 or 75-fold of human dosage), species not stated in the sentence (rats or rabbits) [26]) | effect on the implantation or embryogenesis ([2]; rats) | SMILES | incidence of elevated transaminases (human, in vivo) | teratogenic effect [1] | teratogenic effect ([2]; rats, 20 or 75-fold of the maximal recommended human dosage) | incidence of elevated transaminases (controlled clinical studies, compared to the placebo group [19]) |
| --- | --- | --- | --- | --- | --- | --- |
|  |  | CCc1ccc(CCOc2ccc(CC3SC(=O)NC3=O)cc2)nc1 (stereo not shown) [pioglitazone] | similar |  |  |  |
| can slow down the foetal growth | no effect | CN(CCOc1ccc(CC2SC(=O)NC2=O)cc1)c1ccccn1 (stereo not shown) [rosiglitazone] |  | no teratogenic effect | no teratogenic effect | similar |
|  |  | Cc1c(C)c2c(c(C)c1O)CCC(C)(COc1ccc(CC3SC(=O)NC3=O)cc1)O2 (stereo not shown) [troglitazone] | triplicated |  |  |  |
